Measured values from US11203591B2, “Substituted 6-azabenzimidazole compounds” (Gilead Sciences, Inc., priority 2018, dated 2021).

Target: human HPK1 (MAP4K1) (Homo sapiens (Human), UniProt Q92918)
Test: HPK1 IC50 Assay (TR-FRET peptide phosphorylation)
Format: biochemical
Settings: recombinant HPK1 kinase domain 0.15 nM, 10 μM ATP, 1 μM STK S1 peptide; geometric mean of multiple experiments
Summary of the method: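 Readout: TR-FRET (665 nm/620 nm) after EDTA stop, detecting STK S1 peptide (1 μM) phosphorylation by 0.15 nM HPK1 kinase domain, ATP-pre-activated, at 10 μM ATP over 3 h, 25° C, pH 7.0. IC50s from four-parameter variable-slope fits, normalized to staurosporine and DMSO, averaged geometrically.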

Sequence of human HPK1 (MAP4K1) (Q92918 17-274): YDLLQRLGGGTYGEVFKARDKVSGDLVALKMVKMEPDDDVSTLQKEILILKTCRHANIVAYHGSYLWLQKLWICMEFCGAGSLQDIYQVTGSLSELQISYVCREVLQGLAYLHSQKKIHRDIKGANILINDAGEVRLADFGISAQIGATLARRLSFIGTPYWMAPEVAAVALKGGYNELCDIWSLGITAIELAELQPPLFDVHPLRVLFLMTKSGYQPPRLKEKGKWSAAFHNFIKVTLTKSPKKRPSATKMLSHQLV

| SMILES | IC50 |
| --- | --- |
| Cc1c(C(=O)NC2(C(F)F)CC2)cc(Nc2nc(-c3ccc4c(c3)N([C@H]3C[C@@](C)(N5CCCCC5)C3)CC4(C)C)cc3ncn(C(C)C)c23)c(F)c1F [Example 237, N-(1-(Difluoromethyl)cyclopropyl)-5-((6-(3,3-dimethyl-1-((1s,3s)-3-methyl-3-(piperidin-1-yl)cyclobutyl)indolin-6-yl)-3-isopropyl-3H-imidazo[4,5-c]pyridin-4-yl)amino)-3,4-difluoro-2-methylbenzamide] | 0.3 nM |
| CC(C)n1cnc2cc(-c3ccc4c(c3)N([C@H]3C[C@@](C)(N5CCCCC5)C3)C(=O)C4(C)C)nc(Nc3cc(C(=O)NC4(C(F)F)CC4)ccc3F)c21 [Example 238, N-(1-(Difluoromethyl)cyclopropyl)-3-((6-(3,3-dimethyl-1-((1s,3s)-3-methyl-3-(piperidin-1-yl)cyclobutyl)-2-oxoindolin-6-yl)-3-isopropyl-3H-imidazo[4,5-c]pyridin-4-yl)amino)-4-fluorobenzamide] | 0.02 nM |
| CCNC(=O)c1cc(Nc2nc(-c3ccc4c(c3)N([C@H]3C[C@@](C)(N5CCCCC5)C3)C(=O)C4(C)C)cc3ncn(C(C)C)c23)c(F)c(F)c1C [Example 239, 5-((6-(3,3-Dimethyl-1-((1s,3s)-3-methyl-3-(piperidin-1-yl)cyclobutyl)-2-oxoindolin-6-yl)-3-isopropyl-3H-imidazo[4,5-c]pyridin-4-yl)amino)-N-ethyl-3,4-difluoro-2-methylbenzamide] | 0.04 nM |
| CCNC(=O)c1ccc(F)c(Nc2nc(-c3ccc4c(c3)N([C@H]3C[C@@](C)(N5CCCCC5)C3)C(=O)C4(C)C)cc3ncn(C(C)C)c23)c1 [Example 240, 3-((6-(3,3-Dimethyl-1-((1s,3s)-3-methyl-3-(piperidin-1-yl)cyclobutyl)-2-oxoindolin-6-yl)-3-isopropyl-3H-imidazo[4,5-c]pyridin-4-yl)amino)-N-ethyl-4-fluorobenzamide] | 0.09 nM |
| CC(C)n1cnc2cc(-c3ccc4c(c3)N([C@H]3C[C@@](C)(N5CCCCC5)C3)C(=O)C4(C)C)nc(Nc3cc(C(=O)NC4(C(F)F)CC4)c(Cl)c(F)c3F)c21 [Example 241, 2-Chloro-N-(1-(difluoromethyl)cyclopropyl)-5-((6-(3,3-dimethyl-1-((1s,3s)-3-methyl-3-(piperidin-1-yl)cyclobutyl)-2-oxoindolin-6-yl)-3-isopropyl-3H-imidazo[4,5-c]pyridin-4-yl)amino)-3,4-difluorobenzamide] | 0.1 nM |
| CC(C)n1cnc2cc(-c3cnc4c(c3)N([C@H]3C[C@@](C)(N5CCCCC5)C3)C(=O)C4(C)C)nc(Nc3cc(C(=O)NC4(C(F)F)CC4)cc(F)c3F)c21 [Example 242, N-(1-(difluoromethyl)cyclopropyl)-3-((6-(3,3-dimethyl-1-((1s,3s)-3-methyl-3-(piperidin-1-yl)cyclobutyl)-2-oxo-2,3-dihydro-1H-pyrrolo[3,2-b]pyridin-6-yl)-3-isopropyl-3H-imidazo[4,5-c]pyridin-4-yl)amino)-4,5-difluorobenzamide] | 0.07 nM |
| CC(C)n1cnc2cc(-c3ccc4c(c3)N([C@H]3C[C@@](C)(N5CCCCC5)C3)C(=O)C4(C)C)nc(Nc3cc(C(=O)NC4(C(F)F)CC4)cc(F)c3F)c21 [Example 243, N-(1-(difluoromethyl)cyclopropyl)-3-((6-(3,3-dimethyl-1-((1s,3s)-3-methyl-3-(piperidin-1-yl)cyclobutyl)-2-oxoindolin-6-yl)-3-isopropyl-3H-imidazo[4,5-c]pyridin-4-yl)amino)-4,5-difluorobenzamide] | 0.05 nM |
| CC(C)n1cnc2cc(-c3ccc4c(c3)N([C@H]3C[C@@H](N5CCCCC5)C3)C(=O)C4(C)C)nc(Nc3cc(C(=O)NC4(C(F)F)CC4)c(Cl)c(F)c3F)c21 [Example 244, 2-chloro-N-(1-(difluoromethyl)cyclopropyl)-5-((6-(3,3-dimethyl-2-oxo-1-((1s,3s)-3-(piperidin-1-yl)cyclobutyl)indolin-6-yl)-3-isopropyl-3H-imidazo[4,5-c]pyridin-4-yl)amino)-3,4-difluorobenzamide] | 0.05 nM |
| CC(C)n1cnc2cc(-c3cnc4c(c3)N([C@H]3C[C@@H](N5CCCCC5)C3)C(=O)C4(C)C)nc(Nc3cc(C(=O)NC4(C(F)F)CC4)c(Cl)c(F)c3F)c21 [Example 245, 2-chloro-N-(1-(difluoromethyl)cyclopropyl)-5-((6-(3,3-dimethyl-2-oxo-1-((1s,3s)-3-(piperidin-1-yl)cyclobutyl)-2,3-dihydro-1H-pyrrolo[3,2-b]pyridin-6-yl)-3-isopropyl-3H-imidazo[4,5-c]pyridin-4-yl)amino)-3,4-difluorobenzamide] | 0.1 nM |
| Cc1c(C(=O)NC2(C(F)F)CC2)cc(Nc2nc(-c3cnc4c(c3)N([C@H]3C[C@@H](N5CCCCC5)C3)C(=O)C4(C)C)cc3ncn(C(C)C)c23)c(F)c1F [Example 246, N-(1-(difluoromethyl)cyclopropyl)-5-((6-(3,3-dimethyl-2-oxo-1-((1s,3s)-3-(piperidin-1-yl)cyclobutyl)-2,3-dihydro-1H-pyrrolo[3,2-b]pyridin-6-yl)-3-isopropyl-3H-imidazo[4,5-c]pyridin-4-yl)amino)-3,4-difluoro-2-methylbenzamide] | 0.04 nM |
| CCNC(=O)c1cc(Nc2nc(-c3cnc4c(c3)N([C@H]3C[C@@](C)(N5CCCCCC5)C3)C(=O)C4(C)C)cc3ncn(C(C)C)c23)c(F)c(F)c1Cl [Example 247, 5-((6-(1-((1s,3s)-3-(azepan-1-yl)-3-methylcyclobutyl)-3,3-dimethyl-2-oxo-2,3-dihydro-1H-pyrrolo[3,2-b]pyridin-6-yl)-3-isopropyl-3H-imidazo[4,5-c]pyridin-4-yl)amino)-2-chloro-N-ethyl-3,4-difluorobenzamide] | 0.05 nM |
| CC(C)n1cnc2cc(-c3cnc4c(c3)N([C@H]3C[C@@](C)(N5CCCCCC5)C3)C(=O)C4(C)C)nc(Nc3cc(C(=O)NCC(F)F)c(Cl)c(F)c3F)c21 [Example 248, 5-((6-(1-((1s,3s)-3-(azepan-1-yl)-3-methylcyclobutyl)-3,3-dimethyl-2-oxo-2,3-dihydro-1H-pyrrolo[3,2-b]pyridin-6-yl)-3-isopropyl-3H-imidazo[4,5-c]pyridin-4-yl)amino)-2-chloro-N-(2,2-difluoroethyl)-3,4-difluorobenzamide] | 0.05 nM |
| CC(C)n1cnc2cc(-c3cnc4c(c3)N([C@H]3C[C@@](C)(N5CCCCCC5)C3)C(=O)C4(C)C)nc(Nc3cc(C(=O)NC4(CF)CC4)c(Cl)c(F)c3F)c21 [Example 249, 5-((6-(1-((1s,3s)-3-(azepan-1-yl)-3-methylcyclobutyl)-3,3-dimethyl-2-oxo-2,3-dihydro-1H-pyrrolo[3,2-b]pyridin-6-yl)-3-isopropyl-3H-imidazo[4,5-c]pyridin-4-yl)amino)-2-chloro-3,4-difluoro-N-(1-(fluoromethyl)cyclopropyl)benzamide] | 0.04 nM |
| CC(C)n1cnc2cc(-c3cnc4c(c3)N([C@H]3C[C@@](C)(N5CCCCC5)C3)C(=O)C4(C)C)nc(Nc3cc(C(=O)NCC(F)F)c(Cl)c(F)c3F)c21 [Example 250, 2-chloro-N-(2,2-difluoroethyl)-5-((6-(3,3-dimethyl-1-((1s,3s)-3-methyl-3-(piperidin-1-yl)cyclobutyl)-2-oxo-2,3-dihydro-1H-pyrrolo[3,2-b]pyridin-6-yl)-3-isopropyl-3H-imidazo[4,5-c]pyridin-4-yl)amino)-3,4-difluorobenzamide] | 0.1 nM |
| CCNC(=O)c1cc(Nc2nc(-c3cnc4c(c3)N([C@H]3C[C@@](C)(N5CCC6CC6C5)C3)C(=O)C4(C)C)cc3ncn(C(C)C)c23)c(F)c(F)c1Cl (stereo partly shown) [Example 251, 5-((6-(1-((1s,3s)-3-(3-azabicyclo[4.1.0]heptan-3-yl)-3-methylcyclobutyl)-3,3-dimethyl-2-oxo-2,3-dihydro-1H-pyrrolo[3,2-b]pyridin-6-yl)-3-isopropyl-3H-imidazo[4,5-c]pyridin-4-yl)amino)-2-chloro-N-ethyl-3,4-difluorobenzamide] | 0.04 nM |
| CCNC(=O)c1cc(Nc2nc(-c3cnc4c(c3)N(C3CC(C)(N5CCC6C[C@@H]6C5)C3)C(=O)C4(C)C)cc3ncn(C(C)C)c23)c(F)c(F)c1Cl (stereo partly shown) [Example 252, 5-((6-(1-((1s,3s)-3-(3-azabicyclo[4.1.0]heptan-3-yl)-3-methylcyclobutyl)-3,3-dimethyl-2-oxo-2,3-dihydro-1H-pyrrolo[3,2-b]pyridin-6-yl)-3-isopropyl-3H-imidazo[4,5-c]pyridin-4-yl)amino)-2-chloro-N-ethyl-3,4-difluorobenzamide] | 0.05 nM |
| CC(C)NC(=O)c1cc(Nc2nc(-c3cnc4c(c3)N([C@H]3C[C@@](C)(N5CCC6CC6C5)C3)C(=O)C4(C)C)cc3ncn(C(C)C)c23)c(F)c(F)c1Cl (stereo partly shown) [Example 254, 5-((6-(1-((1s,3s)-3-(3-azabicyclo[4.1.0]heptan-3-yl)-3-methylcyclobutyl)-3,3-dimethyl-2-oxo-2,3-dihydro-1H-pyrrolo[3,2-b]pyridin-6-yl)-3-isopropyl-3H-imidazo[4,5-c]pyridin-4-yl)amino)-2-chloro-3,4-difluoro-N-isopropylbenzamide] | 0.05 nM |
| CCNC(=O)c1cc(Nc2nc(-c3cc4c(nc3F)C(C)(C)C(=O)N4[C@H]3C[C@@](C)(N4CCC5CC5C4)C3)cc3ncn(C(C)C)c23)c(F)c(F)c1C (stereo partly shown) [Example 255, 5-((6-(1-((1s,3s)-3-(3-azabicyclo[4.1.0]heptan-3-yl)-3-methylcyclobutyl)-5-fluoro-3,3-dimethyl-2-oxo-2,3-dihydro-1H-pyrrolo[3,2-b]pyridin-6-yl)-3-isopropyl-3H-imidazo[4,5-c]pyridin-4-yl)amino)-N-ethyl-3,4-difluoro-2-methylbenzamide] | 0.1 nM |
| CC(C)n1cnc2cc(-c3cnc4c(c3)N([C@H]3C[C@@](C)(N5CCC6CC6C5)C3)C(=O)C4(C)C)nc(Nc3cc(C(=O)NCC(F)F)c(Cl)c(F)c3F)c21 (stereo partly shown) [Example 256, 5-((6-(1-((1s,3s)-3-(3-azabicyclo[4.1.0]heptan-3-yl)-3-methylcyclobutyl)-3,3-dimethyl-2-oxo-2,3-dihydro-1H-pyrrolo[3,2-b]pyridin-6-yl)-3-isopropyl-3H-imidazo[4,5-c]pyridin-4-yl)amino)-2-chloro-N-(2,2-difluoroethyl)-3,4-difluorobenzamide] | 0.05 nM |
